Test results published in paper PMC11253866 (RSC Medicinal Chemistry, 2024).
Read-outs that look alike come from different tables or passages of the source. Marks after values point to notes of the source that are not given here.

Assays:
[1] = scale 0–6, cited from earlier work
[2] = Liver microsome stability assessment; assay type: in vitro ADME, rat; conditions: LCMS analysis of liver microsome assay mixtures

| Structure (SMILES) | CNS MPO score [1] | CNS MPO score ([1]; listed as gabapentin) | major metabolic route [2] |
| --- | --- | --- | --- |
| COc1cccc(C2(O)CCCCC2CN(C)C)c1 (stereo not shown) [tramadol] | 4.6 | – | – |
| CNCCC=C1c2ccccc2CCc2ccccc21 [nortriptyline] | 3.3 | – | – |
| NCC1(CC(=O)O)CCCCC1 [Gabapentin] | 4.2 ^a | 4.2 | – |
| CN(C)CCCOc1ccc(S(=O)(=O)N2c3ccccc3Oc3ccccc32)cc1.O=C(O)C(F)(F)F [Compound 4b, 3-(4-((10H-Phenoxazin-10-yl)sulfonyl)phenoxy)-N,N-dimethylpropan-1-amine.TFA] | – | – | demethylation |
| CN(C)CCCN1c2ccccc2CCc2ccc(Cl)cc21 [clomipramine] | 3.1 | – | – |
| CNCCCOc1ccc(S(=O)(=O)N2c3ccccc3Oc3ccccc32)cc1.O=C(O)C(F)(F)F [Compound 4a, 3-(4-((10H-Phenoxazin-10-yl)sulfonyl)phenoxy)-N-methylpropan-1-amine.TFA] | – | – | demethylation |
